The values below come from US12203941B2, “Methods and compositions for diagnosis and prognosis of renal injury and renal failure” (ASTUTE MEDICAL, INC., priority 2013, dated 2025).

Read-outs that look alike come from different tables or passages of the source.

One data set has as its system patients without AKI. Conditions: previous investigators; cited from earlier work.
Data set [1] relates to critically ill patients with either stage I or II Acute Kidney Injury Network (AKIN) criteria. Conditions: for Urine volume, Hour 1: Hour 1 after FST; for Urine volume, Hour 1 / Urine volume, Hour 2 / Urine volume, Hour 3 / Urine volume, Hour 4 / Urine volume, Hour 5 / Urine volume, Hour 6: mean (s.e.); for Urine volume, Hour 2: Hour 2 after FST; for Urine volume, Hour 3: Hour 3 after FST; for Urine volume, Hour 4: Hour 4 after FST; for Urine volume, Hour 5: Hour 5 after FST; for Urine volume, Hour 6: Hour 6 after FST; for Tolerability / adverse events attributable to the FST: critically ill patients with AKI, well-resuscitated, iv furosemide 1.0 or 1.5 mg/kg, urine output replaced with isotonic fluids when appropriate. From the text:
Replacement fluid was not protocolized in this group of subjects. Demographic, clinical data, urine sediment scores, and outcome data were abstracted from the case report forms.
Prior to FST urine was collected. […] In order to minimize the risk of hypovolemia, urine output was replaced ml for ml each hour with either Ringers lactate or normal saline for six hours after the FST. The treating team could elect not to replace the volume if net volume loss was considered clinically desirable.
Urine output was measured hourly for six hours and in total for 24 hours. […] Patients were followed for 14 days or hospital discharge, whichever occurred first. Fractional excretion of sodium was calculated as described in Bagshaw and colleagues. MDRD equation was used to calculate the eGFR as described in Levey and colleagues. Cardiovascular SOFA score and APACHE II score were calculated as previously described.

In the case of `NS(=O)(=O)c1cc(C(=O)O)c(NCc2ccco2)cc1Cl` [Furosemide], in the data set with patients without AKI, the “Time of maximum diuretic effect” value is recorded as “within the first three hours”. Further, in data set [1] (Combined n = 77, furosemide 1.0 or 1.5 mg/kg iv), the “Urine volume, Hour 1” value is on record as 251 (35.2) ml. For the same molecule, in data set [1] (Furosemide Naive n = 29), the “Urine volume, Hour 1” value is given as 331 (68.5) ml; the “Urine volume, Hour 2” value is given as 348 (66.6) ml; the “Urine volume, Hour 3” value is 285 (52.1) ml; the “Urine volume, Hour 4” value was 240 (48.6) ml. In data set [1] (Furosemide Naive n = 29), the “Urine volume, Hour 5” value is recorded as 204 (35.9) ml and the “Urine volume, Hour 6” value is listed as 167 (33.6) ml. Moreover, in data set [1] (Non-naive N = 48), the “Urine volume, Hour 1” value is 258 (37.2) ml; the “Urine volume, Hour 2” value was 264 (40.9) ml; the “Urine volume, Hour 3” value is listed as 223 (28.6) ml; the “Urine volume, Hour 4” value was 188 (25.4) ml. Also, in data set [1] (Non-naive N = 48), the “Urine volume, Hour 5” value is listed as 157 (22.5) ml and the “Urine volume, Hour 6” value was 147 (19.6) ml. In addition, in data set [1] (Combined n = 77), the “Urine volume, Hour 2” value is reported as 296 (35.8) ml; the “Urine volume, Hour 3” value is 246 (26.6) ml; the “Urine volume, Hour 4” value is reported as 207 (24.1) ml; the “Urine volume, Hour 5” value is on record as 175 (18.6) ml. In addition, the “Urine volume, Hour 6” value in data set [1] (Combined n = 77) was 155 (17.4) ml. The “Tolerability / adverse events attributable to the FST” value in data set [1] was “these complications were not observed in this study”. For the same molecule, the “Tolerability / adverse events attributable to the FST” value in data set [1] (listed as furosemide) is given as “well tolerated with no episodes of hypotension or any other adverse event deemed attributable to the test”. For the same molecule, in data set [1] (hourly urine output for six hours after iv furosemide), the “Time of maximum urine flow rate (UFR) after FST” value is listed as “within the first two to three hours”. Besides, the “Mean UO in response to the challenge” value in data set [1] (in 6 hours after FST) is listed as “over 1.3 liters”.
